One assay concerns the target T1, FAAH (Homo sapiens, UniProt O00519).
T1 sequence (O00519 1-579): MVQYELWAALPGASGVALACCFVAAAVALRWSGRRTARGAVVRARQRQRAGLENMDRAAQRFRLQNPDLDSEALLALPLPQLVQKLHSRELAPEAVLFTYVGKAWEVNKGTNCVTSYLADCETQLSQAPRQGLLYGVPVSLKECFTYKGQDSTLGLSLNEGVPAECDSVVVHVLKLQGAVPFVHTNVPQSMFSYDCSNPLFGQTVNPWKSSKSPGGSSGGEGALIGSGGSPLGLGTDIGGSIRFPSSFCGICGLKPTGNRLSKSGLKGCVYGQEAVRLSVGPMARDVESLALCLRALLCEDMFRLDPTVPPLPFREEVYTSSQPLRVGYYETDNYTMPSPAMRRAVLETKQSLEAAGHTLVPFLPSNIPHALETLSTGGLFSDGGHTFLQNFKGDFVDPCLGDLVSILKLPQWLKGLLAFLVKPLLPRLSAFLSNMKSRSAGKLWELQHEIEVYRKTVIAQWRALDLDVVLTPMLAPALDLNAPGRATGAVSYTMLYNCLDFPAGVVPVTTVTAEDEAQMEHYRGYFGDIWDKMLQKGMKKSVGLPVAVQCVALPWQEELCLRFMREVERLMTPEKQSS
Kind of assay: Assay Method 1: FAAH assay, 3H-anandamide hydrolysis in homogenate of T84 cells or SK-N-MC cells transfected with human FAAH. The assay is classed as biochemical. The following applies: average of results, > = solubility limit or highest concentration tested. The procedure, abridged:
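Homogenates of T84 cells or of SK-N-MC cells stably transfected with human FAAH (G418-selected) were prepared in pH 9 Tris/EDTA/glycerol/Triton buffer. They were incubated with compound and 80 nM final ^3H-anandamide for 1 h at rt. Released ^3H-ethanolamine was separated on activated charcoal and counted by scintillation.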

Another assay concerns the target T2, rat FAAH (Rattus norvegicus, UniProt P97612).
T2 sequence (P97612 1-579): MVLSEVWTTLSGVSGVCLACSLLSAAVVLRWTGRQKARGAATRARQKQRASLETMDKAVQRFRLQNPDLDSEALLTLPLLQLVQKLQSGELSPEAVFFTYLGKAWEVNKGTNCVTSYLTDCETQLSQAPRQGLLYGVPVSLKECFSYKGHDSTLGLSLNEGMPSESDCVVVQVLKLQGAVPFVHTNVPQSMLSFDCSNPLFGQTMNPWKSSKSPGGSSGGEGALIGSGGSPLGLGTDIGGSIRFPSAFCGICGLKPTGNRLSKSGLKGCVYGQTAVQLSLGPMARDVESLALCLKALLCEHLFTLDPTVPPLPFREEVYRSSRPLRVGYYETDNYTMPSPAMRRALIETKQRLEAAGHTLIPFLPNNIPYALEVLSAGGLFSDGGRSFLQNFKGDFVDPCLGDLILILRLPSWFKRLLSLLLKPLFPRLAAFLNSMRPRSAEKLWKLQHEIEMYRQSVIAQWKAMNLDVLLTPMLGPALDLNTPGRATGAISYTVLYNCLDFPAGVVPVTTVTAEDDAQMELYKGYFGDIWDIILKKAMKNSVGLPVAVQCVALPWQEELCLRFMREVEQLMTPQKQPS
The assay can be described thus: Assay Method 2: FAAH assay, 3H-anandamide hydrolysis in homogenate of SK-N-MC cells transfected with rat FAAH. The assay is classed as biochemical. The following applies: average of results, > = solubility limit or highest concentration tested. A digest of the protocol: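 Homogenate of SK-N-MC cells stably transfected with rat FAAH cDNA (G418-selected clones) in pH 9 Tris/EDTA/glycerol/Triton buffer. Incubated with compound and 80 nM final [3H]-anandamide for 1 h at rt. Released [3H]-ethanolamine separated from substrate on activated charcoal filters and counted by scintillation.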

Counter-ions that a name gives are not always drawn.

For `Cc1ccccc1CCc1cccc(CN2CCN(C(=O)Nc3noc4ccccc34)CC2)c1` [Example 94, 4-[3-(2-o-Tolyl-ethyl)-benzyl]-piperazine-1-carboxylic acid benzo[d]isoxazol-3-ylamide hydrochloride salt], the 50% inhibitory concentration (IC50) was 380 nM against FAAH and 630 nM against rat FAAH.
Turning to `O=C(Nc1noc2ccccc12)N1CCN(Cc2cccc(Oc3ccccn3)c2)CC1` [Example 96, N-1,2-Benzisoxazol-3-yl-4-[3-(pyridin-2-yloxy)benzyl]piperazine-1-carboxamide], the IC50 against FAAH came to 200 nM; on rat FAAH, 1100 nM.
Consider `O=C(Nc1noc2ccccc12)N1CCN(Cc2cccc(Oc3cnccn3)c2)CC1` [Example 97, N-1,2-Benzisoxazol-3-yl-4-[3-(pyrazin-2-yloxy)benzyl]piperazine-1-carboxamide], for which the half-inhibitory concentration (IC50) worked out at 270 nM against FAAH and 5000 nM on rat FAAH.
Regarding `N#Cc1ccccc1COc1cccc(CN2CCN(C(=O)Nc3noc4ccccc34)CC2)c1` [Example 98, 4-[3-(2-Cyano-benzyloxy)-benzyl]-piperazine-1-carboxylic acid benzo[d]isoxazol-3-ylamide], the values for the half-inhibitory concentration (IC50) against FAAH and on rat FAAH were 22 nM and 300 nM, respectively.
Turning to `O=C(Nc1noc2ccccc12)N1CCN(Cc2cccc(OCc3ccccc3)c2)CC1` [Example 99, N-1,2-Benzisoxazol-3-yl-4-[3-(benzyloxy)benzyl]piperazine-1-carboxamide], the IC50 at FAAH was 16 nM; at rat FAAH, 260 nM.
Taken in the same sequence, the figures for `O=C(Nc1noc2ccccc12)N1CCN(Cc2ccc3nc[nH]c3c2)CC1` [Example 100, 4-(1H-Benzimidazol-6-ylmethyl)-N-1,2-benzisoxazol-3-ylpiperazine-1-carboxamide] were over 10000 nM and over 10000 nM.
In the case of `CS(=O)(=O)c1ccc(CN2CCN(C(=O)Nc3noc4ccccc34)CC2)cc1` [Example 102, N-1,2-Benzisoxazol-3-yl-4-[4-(methylsulfonyl)benzyl]piperazine-1-carboxamide], the half-inhibitory concentration (IC50) at FAAH and against rat FAAH was over 10000 nM throughout.
Consider `O=C(Nc1noc2ccccc12)N1CCN(Cc2ccc(OC(F)(F)F)cc2)CC1` [Example 103, N-1,2-Benzisoxazol-3-yl-4-[4-(trifluoromethoxy)benzyl]piperazine-1-carboxamide], for which the IC50 was determined as 120 nM on FAAH and 110 nM at rat FAAH.
As for `COc1ccc(NC(=O)N2CCN(Cc3cccc(Oc4ccc(Cl)cc4)c3)CC2)nn1` [Example 104, 4-[3-(4-Chlorophenoxy)benzyl]-N-(6-methoxypyridazin-3-yl)piperazine-1-carboxamide], the IC50 was found to be 37 nM at FAAH and 690 nM against rat FAAH.
Consider `O=C(Nc1noc2ccccc12)N1CCN(Cc2ccc(Cl)c(OC(F)(F)F)c2)CC1` [Example 105, N-1,2-Benzisoxazol-3-yl-4-[4-chloro-3-(trifluoromethoxy)benzyl]-piperazine-1-carboxamide], for which the values for the IC50 against FAAH and against rat FAAH were 100 nM and 13 nM, respectively.
As to `O=C(Nc1noc2ccccc12)N1CCN(Cc2ccc(F)c(OC(F)(F)F)c2)CC1` [Example 106, N-1,2-Benzisoxazol-3-yl-4-[4-fluoro-3-(trifluoromethoxy)benzyl]-piperazine-1-carboxamide], the half-maximal inhibitory concentration (IC50) turned out to be 80 nM against FAAH and 27 nM against rat FAAH.
`O=C(Nc1noc2ccccc12)N1CCN(Cc2ccc(OC(F)(F)F)c(Cl)c2)CC1` [Example 107, N-1,2-Benzisoxazol-3-yl-4-[3-chloro-4-(trifluoromethoxy)benzyl]-piperazine-1-carboxamide]: the IC50 worked out at 80 nM on FAAH and 37 nM on rat FAAH.
The like results for `O=C(Nc1noc2ccccc12)N1CCN(Cc2ccc(OC(F)(F)F)c(F)c2)CC1` [Example 108, N-1,2-Benzisoxazol-3-yl-4-[3-fluoro-4-(trifluoromethoxy)benzyl]-piperazine-1-carboxamide] were, in that order, 140 nM and 50 nM.
With `O=C(Nc1noc2ccccc12)N1CCN(Cc2cccc(Oc3ccccc3)c2)CC1` [Example 110, N-1,2-Benzisoxazol-3-yl-4-(3-phenoxybenzyl)piperazine-1-carboxamide], the IC50 came to 45 nM against FAAH and 42 nM against rat FAAH.
Taken in the same sequence, the figures for `O=C(Nc1noc2ccccc12)N1CCN(Cc2ccc(Cl)c(Cl)c2)CC1` [Example 111, N-1,2-Benzisoxazol-3-yl-4-(3,4-dichlorobenzyl)piperazine-1-carboxamide] were 35 nM and 40 nM.
With `O=C(Nc1noc2ccccc12)N1CCN(Cc2ccc(OCc3ccccc3)cc2)CC1` [Example 112, N-1,2-Benzisoxazol-3-yl-4-[4-(benzyloxy)benzyl]piperazine-1-carboxamide], the figures for the concentration for half-maximal inhibition (IC50) against FAAH and at rat FAAH were 40 nM and 270 nM, respectively.
In the case of `O=C(Nc1noc2ccccc12)N1CCN(Cc2cc3ccccc3s2)CC1` [Example 113, N-1,2-Benzisoxazol-3-yl-4-(1-benzothiophen-2-ylmethyl)piperazine-1-carboxamide], the half-inhibitory concentration (IC50) was found to be 20 nM at FAAH and 30 nM on rat FAAH.
Take `O=C(Nc1noc2ccccc12)N1CCN(Cc2cccc(Oc3ccc4ncccc4c3)c2)CC1` [Example 114, N-1,2-Benzisoxazol-3-yl-4-[3-(quinolin-6-yloxy)benzyl]piperazine-1-carboxamide]: the IC50 on FAAH and on rat FAAH was 20 nM each time.
As for `O=C(Nc1noc2ccccc12)N1CCN(Cc2ccc(Br)c(F)c2)CC1` [Example 115, N-1,2-Benzisoxazol-3-yl-4-(4-bromo-3-fluorobenzyl)piperazine-1-carboxamide], the IC50 worked out at 40 nM against FAAH and 25 nM on rat FAAH.
As for `O=C(Nc1noc2ccccc12)N1CCN(Cc2ccc3c(c2)OCO3)CC1` [Example 116, N-1,2-Benzisoxazol-3-yl-4-(1,3-benzodioxol-5-ylmethyl)piperazine-1-carboxamide], the IC50 at FAAH was 400 nM; on rat FAAH, 760 nM.
As for `O=C(Nc1noc2ccccc12)N1CCN(Cc2cnc3ccccc3c2)CC1` [Example 117, N-1,2-Benzisoxazol-3-yl-4-(quinolin-3-ylmethyl)piperazine-1-carboxamide], the IC50 against FAAH came to 130 nM; on rat FAAH, 440 nM.
Regarding `O=C(Nc1noc2ccccc12)N1CCN(Cc2ccc3[nH]ccc3c2)CC1` [Example 118, N-1,2-Benzisoxazol-3-yl-4-(1H-indol-5-ylmethyl)piperazine-1-carboxamide], the values for the IC50 on FAAH and against rat FAAH were 1800 nM and 8000 nM, respectively.
For the molecule `O=C(Nc1noc2ccccc12)N1CCN(Cc2cccc(Oc3ccc4ccccc4c3)c2)CC1` [Example 119, N-1,2-Benzisoxazol-3-yl-4-[3-(naphthalen-2-yloxy)benzyl]piperazine-1-carboxamide], the half-inhibitory concentration (IC50) on FAAH is 45 nM; against rat FAAH, 9 nM.
`O=C(Nc1noc2ccccc12)N1CCN(Cc2ccc(Br)cc2)CC1` [Example 120, N-1,2-Benzisoxazol-3-yl-4-(4-bromobenzyl)piperazine-1-carboxamide]: the IC50 against FAAH worked out at 80 nM; on rat FAAH, 120 nM.
The like results for `O=C(Nc1noc2ccccc12)N1CCN(Cc2ccc(Br)c(Br)c2)CC1` [Example 121, N-1,2-Benzisoxazol-3-yl-4-(3,4-dibromobenzyl)piperazine-1-carboxamide] were, in that order, 17 nM and 25 nM.
For `O=C(Nc1noc2ccccc12)N1CCN(Cc2cccc(Oc3ccccc3Cl)c2)CC1` [Example 122, N-1,2-Benzisoxazol-3-yl-4-[3-(2-chlorophenoxy)benzyl]piperazine-1-carboxamide], the 50% inhibitory concentration (IC50) against FAAH was determined as 148 nM; on rat FAAH it was 115 nM.
In the case of `O=C(Nc1noc2ccccc12)N1CCN(Cc2ccc3ccccc3c2)CC1` [Example 123, 4-Naphthalen-2-ylmethyl-piperazine-1-carboxylic acid benzo[d]isoxazol-3-ylamide], the results for the IC50 against FAAH and against rat FAAH were 20 nM and 40 nM, respectively.

(Values after patent US20090062294A1, “HETEROARYL-SUBSTITUTED UREA MODULATORS OF FATTY ACID AMIDE HYDROLASE” (priority 2007, published 2009).)
